Measurements from patent US20020102688A1, “Methods and products for the synthesis of oligosaccharide structures on glycoproteins, glycolipids, or as free molecules, and for the isolation of cloned genetic sequences that determine these structures” (The Regents of the University of Michigan, priority 1990, published 2002).

Assays:
Fuc-TV = molecular target: T1, Fuc-TV (Homo sapiens, UniProt Q11128); assay: Fucosyltransferase assay, extracts of COS-1 cells transfected with pCDNA1-Fuc-TV; format: biochemical; conditions: for utilization as acceptor substrate by Fuc-TV (in words): extracts of COS-1 cells transfected with pCDNA1-Fuc-TV; for Relative Activity (%) with Fuc-TV: relative product formation rate, N-acetyllactosamine = 100, acceptor 20 mM (2-fucosyllactose 5 mM), GDP-[14C]fucose 3 μM, transfected COS-1 cell extract
T1 construct: a 1.94 kb Earl-Xbal fragment containing the entire open reading frame was cloned into a mammalian expression vector; expressed in transfected cells; host or cells: COS-1 cells, transient transfection, 1% Triton X-100 extract
T1 sequence (Q11128 1-374): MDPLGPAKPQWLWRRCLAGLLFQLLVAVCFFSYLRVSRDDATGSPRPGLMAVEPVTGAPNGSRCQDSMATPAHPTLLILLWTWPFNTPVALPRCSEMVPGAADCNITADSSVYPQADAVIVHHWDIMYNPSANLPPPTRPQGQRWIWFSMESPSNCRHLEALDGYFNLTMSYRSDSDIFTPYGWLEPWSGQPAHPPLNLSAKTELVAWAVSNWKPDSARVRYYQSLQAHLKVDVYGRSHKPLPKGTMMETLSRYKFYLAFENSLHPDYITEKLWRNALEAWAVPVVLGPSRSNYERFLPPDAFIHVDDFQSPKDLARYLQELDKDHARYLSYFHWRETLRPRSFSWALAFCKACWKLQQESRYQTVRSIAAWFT
Experimental: Cell extracts containing 1% Triton X-100 were prepared from transfected COS-1 cells. Fucosyltransferase assays were performed in a total volume of 20 μl, and contained 25 mM sodium cacodylate, pH6.2, 5 mM ATP, 10 mM L-fucose, 10 mM MnCl2, 3 μM GDP-^14C-fucose, and 5 μl of cell extract. Acceptor substrates were added to a final concentration of 20 mM. Reactions were incubated at 37° C. for 1 hour and terminated by addition of 20 μl ethanol, followed by addition of 600 μl of distilled water. An aliquot of each reaction (50 μl) was subjected to scintillation counting to determine total radioactivity in the reaction. Another aliquot (200 μl) was applied to a column containing 400 μl of Dowex 1X2-400, formate form. The flow through fraction, and […] of a subsequent water elution, were collected and pooled, and an aliquot was subjected to scintillation counting to quantitate incorporation of radioactive fucose into neutral product.
(§1) Table 2 presents the relative product formation rates obtained with low molecular weight acceptor substrates using cell extracts containing recombinant human α(1,3)fucosyltransferases expressed in transfected COS-1 cells, as described in the preceding sections. Fucosyltransferase assays were performed as described in detail in Lowe et al, J. Biol. Chem., (1991), 266:17467-17477; Weston et al, J. Biol. Chem. (1992), 267:4152-4160; and Kukowska-Latallo et al, Genes. Devel., (1990), 4:1288-1303. For each enzyme, the same extract was used, with saturating amounts of each acceptor oligosaccharide (20 mM, except for 2′-fucosylactose which was used at 5 mM), and GDP-^14C]fucose was present at 3 μM. Reaction times and enzyme amounts were adjusted to ensure a linear rate of product formation (less than 15% of the GDP-fucose substrate consumed). Products were separated by column chromatography and quantitated by liquid scintillation counting, and their structures were confirmed by high performance liquid chromatography, as described in Lowe et al, J. Biol. Chem., (1991), 266:17467-17477; Weston et al, J. Biol. Chem. (1992), 267:4152-4160; and Kukowska-Latallo et al, Genes. Devel., (1990), 4:1288-1303.

Fuc-TIV = molecular target: T2, Fuc-TIV (Homo sapiens, UniProt P22083); assay: Fucosyltransferase assay, extracts of COS-1 cells transfected with pCDNA1-Fuc-TIV; format: biochemical; set-up: expressed in transfected cells; host or cells: COS-1 cells, transient transfection, 1% Triton X-100 extract; conditions: for fucose transfer to acceptor: pCDNA1-Fuc-TIV COS-1 extracts with relatively large activity toward N-acetyllactosamine; for Relative Activity (%) with Fuc-TIV: relative product formation rate, N-acetyllactosamine = 100, acceptor 20 mM (2-fucosyllactose 5 mM), GDP-[14C]fucose 3 μM, transfected COS-1 cell extract; for fucosyltransferase activity with acceptor substrate: standard assay, extracts of pCDNA1-Fuc-TIV transfected COS-1 cells, acceptor 20 mM
T2 sequence (P22083 1-405 isoform P22083-2): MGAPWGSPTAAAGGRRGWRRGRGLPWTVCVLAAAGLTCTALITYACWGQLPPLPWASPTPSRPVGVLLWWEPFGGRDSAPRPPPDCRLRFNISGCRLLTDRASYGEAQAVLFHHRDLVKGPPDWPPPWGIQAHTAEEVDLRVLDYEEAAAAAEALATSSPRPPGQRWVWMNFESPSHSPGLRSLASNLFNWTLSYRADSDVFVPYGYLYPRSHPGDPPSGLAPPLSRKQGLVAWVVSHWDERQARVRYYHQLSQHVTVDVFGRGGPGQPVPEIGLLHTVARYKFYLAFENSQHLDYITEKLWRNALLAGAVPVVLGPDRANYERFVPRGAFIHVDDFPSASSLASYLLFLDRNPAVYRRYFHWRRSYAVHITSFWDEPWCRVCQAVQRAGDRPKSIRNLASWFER
Experimental: Cell extracts containing 1% Triton X-100 were prepared from transfected COS-1 cells. Fucosyltransferase assays were performed in a total volume of 20 μl, and contained 50 mM sodium cacodylate, pH 6.2, 5 mM ATP, 10 mM fucose, 20 mM MnCl2, 3 μM GDP-^14C-fucose, and 5 μl (30 μg protein) of cell extract. Acceptor substrates were added to a final concentration of 20 mM. Reactions were incubated at 37° C. for 1 hour and terminated by addition of 20 μl ethanol, followed by addition of 600 μl of distilled water. An aliquot of each reaction (50 μl) was subjected to scintillation counting to determine total radioactivity in the reaction. Another aliquot (200 μl) was applied to a column containing 400 μl of Dowex IX2-400, formate form. The flow through fraction, and […] of a subsequent water elution, were collected and pooled, and an aliquot was subjected to scintillation counting to quantitate incorporation of radioactive fucose into neutral product. Descending paper chromatography was used to confirm the structure of the product formed with the acceptor N-acetyllactosamine. The neutral product in the Dowex column eluate was concentrated by lyophilization, resuspended in a small volume of water, and fractionated through Whatman No. 40 in phenol/isopropanol/formic acid/water (85:5:10:100, lower layer). After chromatography (40 hours), the air-dried chromatogram was cut into 1 cm strips and the strips eluted into 2 ml of water. Radioactivity in each eluate was determined by scintillation counting after mixing with 10 ml of scintillation cocktail.
as §1

| utilization as acceptor substrate by Fuc-TV (in words) (Fuc-TV) | Relative Activity (%) with Fuc-TV (Fuc-TV) [%] | Relative Activity (%) with Fuc-TIV (Fuc-TIV) [%] | fucosyltransferase activity with acceptor substrate (Fuc-TIV) | Compound | fucose transfer to acceptor (Fuc-TIV) |
| --- | --- | --- | --- | --- | --- |
| low efficiency | 10 | <1 | trace amount | CC(=O)N[C@@H]1[C@@H](O[C@@H]2O[C@H](CO)[C@H](O)[C@H](O)[C@H]2O)[C@H](O)[C@@H](CO)O[C@@H]1O [lacto-N-biose I] |  |
| substantially lower efficiencies | 11 | 3 | 10 pmol/mg/h | OC[C@H]1O[C@@H](O[C@H]2[C@H](O)[C@@H](O)C(O)O[C@@H]2CO)[C@H](O)[C@@H](O)[C@H]1O (stereo partly drawn) [lactose] |  |
| efficiently utilized | 115 | <1 |  | CC(=O)NC1C(O)OC(CO)C(OC2OC(CO)C(O)C(OC3(C(=O)O)CC(O)C(NC(C)=O)C(C(O)C(O)CO)O3)C2O)C1O (stereo not drawn) [α(2,3)sialyllactosamine, NeuAcα(2→3)Galβ(1→4)GlcNAc] | less than 1 pmol/mg-h |
| substantially lower efficiencies | 42 | 6 | 17 pmol/mg/h | Fucα(1,2)Galβ(1,4)Glc [2-fucosyllactose] |  |

| Compound | utilization as acceptor substrate by Fuc-TV (in words) (Fuc-TV) | Relative Activity (%) with Fuc-TV (Fuc-TV) [%] | Relative Activity (%) with Fuc-TIV (Fuc-TIV) [%] | fucosyltransferase activity with acceptor substrate (Fuc-TIV) | fucose transfer to acceptor (Fuc-TIV) |
| --- | --- | --- | --- | --- | --- |
| CC(=O)N[C@H]1C(O)O[C@H](CO)[C@@H](O[C@@H]2O[C@H](CO)[C@H](O)[C@H](O)[C@H]2O)[C@@H]1O (stereo partly drawn) [N-acetyllactosamine] | utilized | 100 | 100 | 296 pmol/mg/h | 474 pmol/mg/h |
